Experimental data: patent US9693556B2, “Herbicidal pyridazinone derivatives” (SYNGENTA LIMITED, priority 2011, dated 2017)

Tests used:
Type in all cases: in vivo
[1] = tested on: Echinochloa crus-galli (ECHCG); test: Pre-emergence herbicidal glasshouse test on Echinochloa crus-galli; conditions: pre-emergence; 1000 g/h; evaluated after 13 days
Method: (§1) Seeds of a variety of test species are sown in standard soil in pots (Alopecurus myosuroides (ALOMY), Setaria faberi (SETFA), Echinochloa crus-galli (ECHCG), Solanum nigrum (SOLNI), Amaranthus retoflexus (AMARE), Ipomoea hederacea (IPOHE)). After cultivation for one day (pre-emergence) or after 8 days cultivation (post-emergence) under controlled conditions in a glasshouse (at 24/16° C., day/night; 14 hours light; 65% humidity), the plants are sprayed with an aqueous spray solution derived from the formulation of the technical active ingredient in acetone/water (50:50) solution containing 0.5% Tween 20 (polyoxyethelyene sorbitan monolaurate, CAS RN 9005-64-5). Compounds are applied at 1000 g/h. The test plants are then grown in a glasshouse under controlled conditions in a glasshouse (at 24/16° C., day/night; 14 hours light; 65% humidity) and watered twice daily. After 13 days for pre and post-emergence, the test is evaluated for the percentage herbicidal damage caused to the plant. The biological activities are shown in the following table on a five point scale (5=80-100% damage; 4=60-79% damage; 3=40-59% damage; 2=20-39% damage; 1=0-19% damage).

[2] = tested on: Amaranthus retoflexus (AMARE); test: Post-emergence herbicidal glasshouse test on Amaranthus retoflexus; conditions: post-emergence; 1000 g/h; evaluated after 13 days
Method: as §1

Setaria faberi (SETFA) [3] = test: Post-emergence herbicidal glasshouse test on Setaria faberi; conditions: post-emergence; 1000 g/h; evaluated after 13 days
Method: as §1

[4] = tested on: Ipomoea hederacea (IPOHE); test: Post-emergence herbicidal glasshouse test on Ipomoea hederacea; conditions: post-emergence; 1000 g/h; evaluated after 13 days
Method: as §1

[5] = tested on: Ipomoea hederacea (IPOHE); test: Pre-emergence herbicidal glasshouse test on Ipomoea hederacea; conditions: pre-emergence; 1000 g/h; evaluated after 13 days
Method: as §1

[6] = tested on: Alopecurus myosuroides (ALOMY); test: Pre-emergence herbicidal glasshouse test on Alopecurus myosuroides; conditions: pre-emergence; 1000 g/h; evaluated after 13 days
Method: as §1

Solanum nigrum (SOLNI) [7] = test: Pre-emergence herbicidal glasshouse test on Solanum nigrum; conditions: pre-emergence; 1000 g/h; evaluated after 13 days
Method: as §1

[8] = tested on: Echinochloa crus-galli (ECHCG); test: Post-emergence herbicidal glasshouse test on Echinochloa crus-galli; conditions: post-emergence; 1000 g/h; evaluated after 13 days
Method: as §1

[9] = tested on: Alopecurus myosuroides (ALOMY); test: Post-emergence herbicidal glasshouse test on Alopecurus myosuroides; conditions: post-emergence; 1000 g/h; evaluated after 13 days
Method: as §1

Solanum nigrum (SOLNI) [10] = test: Post-emergence herbicidal glasshouse test on Solanum nigrum; conditions: post-emergence; 1000 g/h; evaluated after 13 days
Method: as §1

[11] = tested on: Amaranthus retoflexus (AMARE); test: Pre-emergence herbicidal glasshouse test on Amaranthus retoflexus; conditions: pre-emergence; 1000 g/h; evaluated after 13 days
Method: as §1

Setaria faberi (SETFA) [12] = test: Pre-emergence herbicidal glasshouse test on Setaria faberi; conditions: pre-emergence; 1000 g/h; evaluated after 13 days
Method: as §1

Row | SMILES | PRE Application ECHCG herbicidal damage (five point scale) [1] | POST Application AMARE herbicidal damage (five point scale) [2] | POST Application SETFA herbicidal damage (five point scale) (Setaria faberi (SETFA) [3]) | POST Application IPOHE herbicidal damage (five point scale) [4] | PRE Application IPOHE herbicidal damage (five point scale) [5] | PRE Application ALOMY herbicidal damage (five point scale) [6] | PRE Application SOLNI herbicidal damage (five point scale) (Solanum nigrum (SOLNI) [7]) | POST Application ECHCG herbicidal damage (five point scale) [8] | POST Application ALOMY herbicidal damage (five point scale) [9] | POST Application SOLNI herbicidal damage (five point scale) (Solanum nigrum (SOLNI) [10]) | PRE Application AMARE herbicidal damage (five point scale) [11] | PRE Application SETFA herbicidal damage (five point scale) (Setaria faberi (SETFA) [12])
1 | CCSC(=O)Oc1c(-c2ccc(C(F)(F)F)cc2S(C)(=O)=O)cnn(C)c1=O [Compound 3.004, [2-methyl-5-[2-methylsulfonyl-4-(trifluoromethyl)phenyl]-3-oxo-pyridazin-4-yl]ethylsulfanylformate] | 5 (5=80-100% damage) | 5 (5=80-100% damage) | 5 (5=80-100% damage) | 5 (5=80-100% damage) | 5 (5=80-100% damage) | 5 (5=80-100% damage) | 5 (5=80-100% damage) | 5 (5=80-100% damage) | 5 (5=80-100% damage) | 5 (5=80-100% damage) | 5 (5=80-100% damage) | 5 (5=80-100% damage)
2 | COc1ccc(Cn2cccc(-c3cnn(C)c(=O)c3O)c2=O)cc1 [Compound 9.004] | 1 (1=0-19% damage) | 4 (4=60-79% damage) | 1 (1=0-19% damage) | 3 (3=40-59% damage) | 1 (1=0-19% damage) | 1 (1=0-19% damage) | 1 (1=0-19% damage) | 1 (1=0-19% damage) | 1 (1=0-19% damage) | 4 (4=60-79% damage) | 1 (1=0-19% damage) | 1 (1=0-19% damage)
3 | Cc1ccc(S(=O)(=O)Oc2c(-c3ccc(C(F)(F)F)cc3S(C)(=O)=O)cnn(C)c2=O)cc1 [Compound 3.006, [2-methyl-5-[2-methylsulfonyl-4-(trifluoromethyl)phenyl]-3-oxo-pyridazin-4-yl]4-methylbenzenesulfonate] | 5 (5=80-100% damage) | 5 (5=80-100% damage) | 5 (5=80-100% damage) | 5 (5=80-100% damage) | 4 (4=60-79% damage) | 5 (5=80-100% damage) | 5 (5=80-100% damage) | 5 (5=80-100% damage) | 5 (5=80-100% damage) | 5 (5=80-100% damage) | 5 (5=80-100% damage) | 5 (5=80-100% damage)
4 | Cc1cc(C)c2cc(-c3cnn(C)c(=O)c3O)c(C(F)(F)F)nc2n1 [Compound 5.002] | 2 (2=20-39% damage) | 5 (5=80-100% damage) | 2 (2=20-39% damage) | 5 (5=80-100% damage) | 3 (3=40-59% damage) | 1 (1=0-19% damage) | 1 (1=0-19% damage) | 3 (3=40-59% damage) | 1 (1=0-19% damage) | 5 (5=80-100% damage) | 5 (5=80-100% damage) | 1 (1=0-19% damage)
5 | CCS(=O)(=O)c1nn(C)c(=O)c(O)c1-c1ccc(S(C)(=O)=O)c(C2=NOCC2)c1C [Compound 2.021] | 1 (1=0-19% damage) | 5 (5=80-100% damage) | 2 (2=20-39% damage) | 5 (5=80-100% damage) | 1 (1=0-19% damage) | 1 (1=0-19% damage) | 1 (1=0-19% damage) | 5 (5=80-100% damage) | 1 (1=0-19% damage) | 5 (5=80-100% damage) | 5 (5=80-100% damage) | 1 (1=0-19% damage)
6 | Cc1c(-c2cnn(C)c(=O)c2O)ccc2c1C(=O)N(C)S2(=O)=O [Compound 1.035] | 5 (5=80-100% damage) | 5 (5=80-100% damage) | 1 (1=0-19% damage) | 5 (5=80-100% damage) | 4 (4=60-79% damage) | 1 (1=0-19% damage) | 3 (3=40-59% damage) | 5 (5=80-100% damage) | 2 (2=20-39% damage) | 5 (5=80-100% damage) | 5 (5=80-100% damage) | 1 (1=0-19% damage)
7 | Cn1ncc(-n2cc(N3CCOCC3)c(C(F)(F)F)cc2=O)c(O)c1=O [Compound 1.025] | 1 (1=0-19% damage) | 2 (2=20-39% damage) | 1 (1=0-19% damage) | 2 (2=20-39% damage) | 1 (1=0-19% damage) | 1 (1=0-19% damage) | 1 (1=0-19% damage) | 1 (1=0-19% damage) | 1 (1=0-19% damage) | 4 (4=60-79% damage) | 1 (1=0-19% damage) | 1 (1=0-19% damage)
8 | Cn1nc([N+](=O)[O-])c(-c2ccc(C(F)(F)F)cc2S(C)(=O)=O)c(O)c1=O [Compound 2.022] | 5 (5=80-100% damage) | 5 (5=80-100% damage) | 5 (5=80-100% damage) | 5 (5=80-100% damage) | 5 (5=80-100% damage) | 5 (5=80-100% damage) | 5 (5=80-100% damage) | 5 (5=80-100% damage) | 5 (5=80-100% damage) | 5 (5=80-100% damage) | 5 (5=80-100% damage) | 4 (4=60-79% damage)
9 | Cn1ncc(-c2ccc(-c3ccccc3)cc2S(C)(=O)=O)c(O)c1=O [Compound 2.033] | 4 (4=60-79% damage) | 5 (5=80-100% damage) | 3 (3=40-59% damage) | 5 (5=80-100% damage) | 1 (1=0-19% damage) | 4 (4=60-79% damage) | 5 (5=80-100% damage) | 5 (5=80-100% damage) | 5 (5=80-100% damage) | 5 (5=80-100% damage) | 5 (5=80-100% damage) | 2 (2=20-39% damage)
